What is called IC50 is the midpoint of a concentration-inhibition curve. Higher therefore signals lower potency.

The results in this text go back to ChEMBL document CHEMBL3608256, “Strongylophorines, new protein tyrosine phosphatase 1B inhibitors, from the marine sponge Strongylophora strongilata collected at Iriomote Island” (Bioorg Med Chem Lett, 2015).

SMILES strings stand for the structures.

In the experiment the target is T1, Tyrosine-protein phosphatase non-receptor type 1 (Homo sapiens, UniProt P18031).
T1 sequence (P18031 whole entry): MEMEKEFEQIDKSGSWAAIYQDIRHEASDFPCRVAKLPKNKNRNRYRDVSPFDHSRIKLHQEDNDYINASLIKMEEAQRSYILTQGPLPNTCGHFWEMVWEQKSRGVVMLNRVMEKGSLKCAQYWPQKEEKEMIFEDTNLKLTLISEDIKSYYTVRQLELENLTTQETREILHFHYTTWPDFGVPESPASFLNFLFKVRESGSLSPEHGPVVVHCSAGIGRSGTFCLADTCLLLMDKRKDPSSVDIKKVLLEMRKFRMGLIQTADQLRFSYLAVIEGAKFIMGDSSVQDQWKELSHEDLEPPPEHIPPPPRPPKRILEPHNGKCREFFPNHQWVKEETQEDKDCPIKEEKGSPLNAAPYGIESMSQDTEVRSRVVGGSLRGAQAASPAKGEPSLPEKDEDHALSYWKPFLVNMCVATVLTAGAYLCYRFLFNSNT
Briefly: Inhibition of PTP1B (unknown origin) pre-incubated for 10 mins before addition of p-nitrophenyl phosphate substrate and measured 30 mins post substrate addition.

`C[C@@]12CC[C@@H]3[C@]4(CCC[C@]3(C)C(=O)OC4)[C@H]1CC[C@](C)(O)[C@H]2Cc1cc(O)ccc1O` [strongylophorine-8] came in with an IC50 of 21.2 µM. The value for `C[C@@]12CC[C@@H]3[C@]4(CCC[C@@]3(C)C(=O)OC4)[C@H]1CC[C@]1(C)Oc3ccc(O)cc3C[C@@H]21` [strongylophorine-2] was > 24.4 µM; that for `C[C@]12CCC[C@](C)(C(=O)O)[C@@H]1CC[C@]1(C)[C@@H]2CC[C@]2(C)Oc3ccc(O)cc3C[C@@H]12` [Strongylophorin-3] was 9 µM; that for `C[C@]1(CO)CCC[C@@]2(CO)[C@H]1CC[C@]1(C)[C@@H]2CC[C@]2(C)Oc3ccc(O)cc3C[C@@H]12` was 14.8 µM. The value for `C[C@]12CCC[C@@]3(CO[C@@H]1O)[C@H]2CC[C@]1(C)[C@@H]3CC[C@]2(C)Oc3ccc(O)cc3C[C@@H]12` was 11.9 µM; that for `CO[C@H]1OC[C@]23CCC[C@]1(C)[C@@H]2CC[C@]1(C)[C@@H]3CC[C@]2(C)Oc3ccccc3C[C@@H]12` was 8.5 µM.

Take `CCO[C@H]1OC[C@]23CCC[C@]1(C)[C@@H]2CC[C@]1(C)[C@@H]3CC[C@](C)(O)[C@H]1Cc1cc(O)ccc1O`: the midpoint of inhibition, the IC50, lay at 8.7 µM.
